Assay results published in US11377442B2, “Small molecule agonists and antagonists of NR2F6 activity” (ZANDER THERAPEUTICS, INC., priority 2016, dated 2022).
Read-outs that look alike come from different tables or passages of the source.

Key:
Format in all cases: cell-based
NR2F6 = target: T1, NR2F6 (Homo sapiens, UniProt P10588); experiment: NR2F6 agonist screening, Firefly signal cmpd/DMSO
T1 construct: expressed in transfected cells; also transient transfection
T1 sequence (P10588 1-404): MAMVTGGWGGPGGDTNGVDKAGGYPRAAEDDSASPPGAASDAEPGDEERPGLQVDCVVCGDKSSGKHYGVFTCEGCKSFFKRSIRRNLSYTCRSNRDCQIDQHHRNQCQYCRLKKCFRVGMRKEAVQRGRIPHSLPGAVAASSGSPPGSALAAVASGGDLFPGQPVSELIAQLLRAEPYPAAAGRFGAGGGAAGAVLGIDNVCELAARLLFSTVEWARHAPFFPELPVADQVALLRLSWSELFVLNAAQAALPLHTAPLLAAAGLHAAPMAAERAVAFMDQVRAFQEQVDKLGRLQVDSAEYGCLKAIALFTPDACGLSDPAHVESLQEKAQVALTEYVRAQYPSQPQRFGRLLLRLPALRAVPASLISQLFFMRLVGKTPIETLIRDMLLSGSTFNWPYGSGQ

Renilla = Renilla signal in NR2F6 agonist screening, cmpd/DMSO; settings: Renilla, F4
HEK293 pGL4 = experiment: Firefly_pGL signal, cmpd/DMSO (pGL4 control cells); settings: Homo sapiens
NR2F6 LBD = target: T2, NR2F6 LBD (Homo sapiens, UniProt P10588); experiment: NR2F6 LBD transient transfection; settings: LBD
T2 construct: expressed in transfected cells
T2 sequence (P10588 165-393 limits assumed): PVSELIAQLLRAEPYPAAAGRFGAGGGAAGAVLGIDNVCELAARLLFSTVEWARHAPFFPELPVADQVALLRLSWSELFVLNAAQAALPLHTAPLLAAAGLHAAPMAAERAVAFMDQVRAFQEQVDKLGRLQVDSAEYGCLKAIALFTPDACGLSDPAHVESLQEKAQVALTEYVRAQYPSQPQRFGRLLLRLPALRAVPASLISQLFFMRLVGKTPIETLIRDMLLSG
How it was run: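 LBD-transfected cells treated at 40, 10, 2 and 0.5 μM (4 replicates); cytotoxicity measured in parallel, normalized to DMSO (0%) and zero signal (100%). Higher concentrations excluded where signal loss reflected toxicity.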

[1] = read-out: Renilla, F4, cmpd/DMSO (mean)
[2] = 1% FBS, read-out: Renilla, F4, 1% FBS, cmpd/DMSO (mean)
[3] = 10% FBS, read-out: Renilla, F4, 10% FBS, cmpd/DMSO (mean)

Compound: CCCN[C@H]1CS(=O)(=O)C[C@@H]1S(=O)(=O)c1ccc(Cl)cc1 [Compound D117]
- Firefly F4, cmpd/DMSO (mean) (NR2F6; 0.5 uM): 1.1
- Firefly F4, cmpd/DMSO (mean) (NR2F6; 2 uM): 2.2
- Firefly F4, cmpd/DMSO (mean) (NR2F6; 10 uM): 4.7
- Firefly F4, cmpd/DMSO (mean) (NR2F6; 40 uM): 0.5
- F4, Firefly/Renilla for S/B(F4) > 3 (NR2F6; 1% FBS, 10 uM): 3.4
- Firefly, F4/pGL4 for S/B(F4) > 3 (NR2F6; 1% FBS, 10 uM): 3.2
- F4, Firefly/Renilla for S/B(F4) > 3 (NR2F6; 10% FBS, 10 uM): 2.3
- Firefly, F4/pGL4 for S/B(F4) > 3 (NR2F6; 10% FBS, 10 uM): 1.9
- Firefly, F4, 1% FBS, cmpd/DMSO (mean) (NR2F6; 1% FBS, 0.5 uM): 0.9
- Firefly, F4, 1% FBS, cmpd/DMSO (mean) (NR2F6; 1% FBS, 2 uM): 2.1
- Firefly, F4, 1% FBS, cmpd/DMSO (mean) (NR2F6; 1% FBS, 10 uM): 5.9
- Firefly, F4, 1% FBS, cmpd/DMSO (mean) (NR2F6; 1% FBS, 40 uM): 0.1
- Firefly, F4, 10% FBS, cmpd/DMSO (mean) (NR2F6; 10% FBS, 0.5 uM): 0.9
- Firefly, F4, 10% FBS, cmpd/DMSO (mean) (NR2F6; 10% FBS, 2 uM): 1.2
- Firefly, F4, 10% FBS, cmpd/DMSO (mean) (NR2F6; 10% FBS, 10 uM): 4.1
- Firefly, F4, 10% FBS, cmpd/DMSO (mean) (NR2F6; 10% FBS, 40 uM): 2.9
- fold induction at 0.5 µM (Renilla; [1]): 1
- fold induction at 2 µM (Renilla; [1]): 1.3
- fold induction at 10 µM (Renilla; [1]): 1.7
- fold induction at 40 µM (Renilla; [1]): 0.4
- fold induction at 0.5 µM (Renilla; [2]): 1
- fold induction at 2 µM (Renilla; [2]): 1.4
- fold induction at 10 µM (Renilla; [2]): 1.7
- fold induction at 40 µM (Renilla; [2]): 0.8
- fold induction at 0.5 µM (Renilla; [3]): 1
- fold induction at 2 µM (Renilla; [3]): 1
- fold induction at 10 µM (Renilla; [3]): 1.8
- fold induction at 40 µM (Renilla; [3]): 2.4
- fold induction at 0.5 µM (HEK293 pGL4; HEK293, 0.5 uM, pGL4, read-out: Firefly pGL4, cmpd/DMSO (mean)): 1
- fold induction at 2 µM (HEK293 pGL4; HEK293, 2 uM, pGL4, read-out: Firefly pGL4, cmpd/DMSO (mean)): 1.4
- fold induction at 10 µM (HEK293 pGL4; HEK293, 10 uM, pGL4, read-out: Firefly pGL4, cmpd/DMSO (mean)): 4.6
- fold induction at 40 µM (HEK293 pGL4; HEK293, 40 uM, pGL4, read-out: Firefly pGL4, cmpd/DMSO (mean)): 0.3
- fold induction at 0.5 µM (HEK293 pGL4; HEK293, pGL4, 1% FBS, 0.5 uM, read-out: Firefly, pGL4, 1% FBS, cmpd/DMSO (mean)): 1
- fold induction at 2 µM (HEK293 pGL4; HEK293, pGL4, 1% FBS, 2 uM, read-out: Firefly, pGL4, 1% FBS, cmpd/DMSO (mean)): 1.4
- fold induction at 10 µM (HEK293 pGL4; HEK293, pGL4, 1% FBS, 10 uM, read-out: Firefly, pGL4, 1% FBS, cmpd/DMSO (mean)): 1.9
- fold induction at 40 µM (HEK293 pGL4; HEK293, pGL4, 1% FBS, 40 uM, read-out: Firefly, pGL4, 1% FBS, cmpd/DMSO (mean)): 0.6
- fold induction at 0.5 µM (HEK293 pGL4; HEK293, pGL4, 10% FBS, 0.5 uM, read-out: Firefly, pGL4, 10% FBS, cmpd/DMSO (mean)): 1.1
- fold induction at 2 µM (HEK293 pGL4; HEK293, pGL4, 10% FBS, 2 uM, read-out: Firefly, pGL4, 10% FBS, cmpd/DMSO (mean)): 1.6
- fold induction at 10 µM (HEK293 pGL4; HEK293, pGL4, 10% FBS, 10 uM, read-out: Firefly, pGL4, 10% FBS, cmpd/DMSO (mean)): 2.2
- fold induction at 40 µM (HEK293 pGL4; HEK293, pGL4, 10% FBS, 40 uM, read-out: Firefly, pGL4, 10% FBS, cmpd/DMSO (mean)): 1.2
- Firefly LBD, cmpd/DMSO (mean) (NR2F6 LBD; 0.5 uM): 1.1
- Firefly LBD, cmpd/DMSO (mean) (NR2F6 LBD; 2 uM): 2.1
- Firefly LBD, cmpd/DMSO (mean) (NR2F6 LBD; 10 uM): 4.2
- Firefly LBD, cmpd/DMSO (mean) (NR2F6 LBD; 40 uM): 0.2
